Values after ≈ are worked out from the molar mass of the structure shown.
What was measured:
[1] = test system: E. coli TOP10; format: cell-based; conditions: data not shown
Description: Bacterial cells were grown in cation-adjusted Mueller Hinton Broth (MHB II) overnight to stationary phase. The cultures were then supplemented with 200 g l^−1 glycerol, aliquoted, and frozen at −80°C. […] The purified peptides were thawed and the concentration was determined by RP-HPLC as described before. The peptides were diluted with sterile water to 4-fold the desired assays starting concentration and to a final volume of 50 μl. […] The first well of each MIC dilution series was filled with 20 μl of 2-fold concentrated MHB II, wells 2–11 with 20 μl of MHB II, and well 12 with 40 μl MHB II (sterility control). Next, 20 μl of the peptide dilution was added to the first well, mixed, and a log2-serial dilution was performed from wells 1 to 10 (20 μl transfer volume). Well 11 served as growth control (i.e., no peptide added). In the last step, 20 μl of the bacterial cell suspension was added to wells 1–11 either using the pipetting robot (E. coli TOP10, BW25113, BW25113 ΔsbmA, and ATCC 25922) or by manual pipetting (E. coli clinical isolates). The plates were sealed airtight and incubated for 18 h without shaking at 37°C before reading the OD using an Infinite 200 PRO plate reader (Tecan, Männedorf, CH). […] All MIC experiments were determined in technical replicate.

[2] = test system: E. coli TOP10; experiment: Membrane damage assay in MHB II (GFP loss, PI uptake); format: cell-based; conditions: at its MIC

With `CC[C@H](C)[C@H](NC(=O)CN)C(=O)NCC(=O)N[C@@H](C)C(=O)N[C@H](C(=O)N[C@@H](CC(C)C)C(=O)N[C@@H](CCCCN)C(=O)N[C@H](C(=O)N[C@@H](CC(C)C)C(=O)N[C@H](C(=O)N[C@H](C(=O)NCC(=O)N[C@@H](CC(C)C)C(=O)N1CCC[C@H]1C(=O)N[C@@H](C)C(=O)N[C@@H](CC(C)C)C(=O)N[C@H](C(=O)N[C@@H](CO)C(=O)N[C@@H](Cc1c[nH]c2ccccc12)C(=O)N[C@H](C(=O)N[C@@H](CCCCN)C(=O)N[C@@H](CCCNC(=N)N)C(=O)N[C@@H](CCCCN)C(=O)N[C@@H](CCCNC(=N)N)C(=O)N[C@@H](CCC(N)=O)C(=O)N[C@@H](CCC(N)=O)C(N)=O)[C@@H](C)CC)[C@@H](C)CC)[C@@H](C)O)[C@@H](C)O)C(C)C)C(C)C` [melittin] the MIC [1] was 5.0 µM (≈ 14.2 µg/mL) and the “PI uptake and loss of GFP” value [2] was “rapidly induced PI uptake and loss of GFP”.
